Test results reported in publication PMC7385619, “A triple action CDK4/6-PI3K-BET inhibitor with augmented cancer cell cytotoxicity” (Cell Discovery, 2020).
Read-outs that look alike come from different tables or passages of the source.

Legend:
Experiment in all cases: KINOMEscan assay (Eurofins DiscoverX)
Type in all cases: binding
kinome (kinase panel) [1] = molecular target: T1, kinome (kinase panel) (Homo sapiens, UniProt O14976); settings: GAK; 1000 nM; read-out: Percent Control
T1 construct: purchased Eurofins DiscoverX

kinome (kinase panel) [2] = molecular target: T2, kinome (kinase panel) (Homo sapiens, UniProt O15075); settings: DCAMKL1 (Entrez DCLK1); 1000 nM; read-out: Percent Control
T2 construct: purchased Eurofins DiscoverX

kinome (kinase panel) [3] = molecular target: T3, kinome (kinase panel) (Homo sapiens, UniProt O76039); settings: CDKL5; 1000 nM; read-out: Percent Control
T3 construct: purchased Eurofins DiscoverX

kinome (kinase panel) [4] = molecular target: T4, kinome (kinase panel) (Homo sapiens, UniProt O95835); settings: LATS1; 1000 nM; read-out: Percent Control
T4 construct: purchased Eurofins DiscoverX

kinome (kinase panel) [5] = molecular target: T5, kinome (kinase panel) (Homo sapiens, UniProt P00533, DEL752-759); settings: EGFR(S752-I759del); 1000 nM; read-out: Percent Control
T5 construct: purchased Eurofins DiscoverX

kinome (kinase panel) [6] = molecular target: T6, kinome (kinase panel) (Homo sapiens, UniProt P06239); settings: LCK; 1000 nM; read-out: Percent Control
T6 construct: purchased Eurofins DiscoverX

kinome (kinase panel) [7] = molecular target: T7, kinome (kinase panel) (Homo sapiens, UniProt P11362); settings: FGFR1; 1000 nM; read-out: Percent Control
T7 construct: purchased Eurofins DiscoverX

kinome (kinase panel) [8] = molecular target: T8, kinome (kinase panel) (Homo sapiens, UniProt P11802); settings: 1000 nM, read-out: Percent Control
T8 construct: purchased Eurofins DiscoverX

kinome (kinase panel) [9] = molecular target: T9, kinome (kinase panel) (Homo sapiens, UniProt P29317); settings: EPHA2; 1000 nM; read-out: Percent Control
T9 construct: purchased Eurofins DiscoverX

kinome (kinase panel) [10] = molecular target: T10, kinome (kinase panel) (Homo sapiens, UniProt P33981); settings: TTK; 1000 nM; read-out: Percent Control
T10 construct: purchased Eurofins DiscoverX

kinome (kinase panel) [11] = molecular target: T11, kinome (kinase panel) (Homo sapiens, UniProt P42336); settings: PIK3CA; 1000 nM; read-out: Percent Control
T11 construct: purchased Eurofins DiscoverX

kinome (kinase panel) [12] = molecular target: T12, kinome (kinase panel) (Homo sapiens, UniProt P46734); settings: MEK3 (Entrez MAP2K3); 1000 nM; read-out: Percent Control
T12 construct: purchased Eurofins DiscoverX

kinome (kinase panel) [13] = molecular target: T13, kinome (kinase panel) (Homo sapiens, UniProt P49336); settings: CDK8; 1000 nM; read-out: Percent Control
T13 construct: purchased Eurofins DiscoverX

kinome (kinase panel) [14] = molecular target: T14, kinome (kinase panel) (Homo sapiens, UniProt P49761); settings: CLK3; 1000 nM; read-out: Percent Control
T14 construct: purchased Eurofins DiscoverX

kinome (kinase panel) [15] = molecular target: T15, kinome (kinase panel) (Homo sapiens, UniProt P53671); settings: LIMK2; 1000 nM; read-out: Percent Control
T15 construct: purchased Eurofins DiscoverX

kinome (kinase panel) [16] = molecular target: T16, kinome (kinase panel) (Homo sapiens, UniProt P54762); settings: EPHB1; 1000 nM; read-out: Percent Control
T16 construct: purchased Eurofins DiscoverX

kinome (kinase panel) [17] = molecular target: T17, kinome (kinase panel) (Homo sapiens, UniProt Q02779); settings: MLK2 (Entrez MAP3K10); 1000 nM; read-out: Percent Control
T17 construct: purchased Eurofins DiscoverX

kinome (kinase panel) [18] = molecular target: T18, kinome (kinase panel) (Homo sapiens, UniProt Q04912); settings: MST1R; 1000 nM; read-out: Percent Control
T18 construct: purchased Eurofins DiscoverX

kinome (kinase panel) [19] = molecular target: T19, kinome (kinase panel) (Homo sapiens, UniProt Q07912); settings: TNK2; 1000 nM; read-out: Percent Control
T19 construct: purchased Eurofins DiscoverX

kinome (kinase panel) [20] = molecular target: T20, kinome (kinase panel) (Homo sapiens, UniProt Q13627); settings: DYRK1A; 1000 nM; read-out: Percent Control
T20 construct: purchased Eurofins DiscoverX

kinome (kinase panel) [21] = molecular target: T21, kinome (kinase panel) (Homo sapiens, UniProt Q14164); settings: IKK-epsilon (Entrez IKBKE); 1000 nM; read-out: Percent Control
T21 construct: purchased Eurofins DiscoverX

kinome (kinase panel) [22] = molecular target: T22, kinome (kinase panel) (Homo sapiens, UniProt Q15139); settings: PRKD1; 1000 nM; read-out: Percent Control
T22 construct: purchased Eurofins DiscoverX

kinome (kinase panel) [23] = molecular target: T23, kinome (kinase panel) (Homo sapiens, UniProt Q15835); settings: GRK1; 1000 nM; read-out: Percent Control
T23 construct: purchased Eurofins DiscoverX

kinome (kinase panel) [24] = molecular target: T24, kinome (kinase panel) (Homo sapiens, UniProt Q16512); settings: PKN1; 1000 nM; read-out: Percent Control
T24 construct: purchased Eurofins DiscoverX

kinome (kinase panel) [25] = molecular target: T25, kinome (kinase panel) (Homo sapiens, UniProt Q6DT37); settings: DMPK2 (Entrez CDC42BPG); 1000 nM; read-out: Percent Control
T25 construct: purchased Eurofins DiscoverX

kinome (kinase panel) [26] = molecular target: T26, kinome (kinase panel) (Homo sapiens, UniProt Q8N568); settings: DCAMKL2 (Entrez DCLK2); 1000 nM; read-out: Percent Control
T26 construct: purchased Eurofins DiscoverX

kinome (kinase panel) [27] = molecular target: T27, kinome (kinase panel) (Homo sapiens, UniProt Q8TDX7); settings: NEK7; 1000 nM; read-out: Percent Control
T27 construct: purchased Eurofins DiscoverX

kinome (kinase panel) [28] = molecular target: T28, kinome (kinase panel) (Homo sapiens, UniProt Q96RR4); settings: CAMKK2; 1000 nM; read-out: Percent Control
T28 construct: purchased Eurofins DiscoverX

kinome (kinase panel) [29] = molecular target: T29, kinome (kinase panel) (Homo sapiens, UniProt Q9BQI3); settings: EIF2AK1; 1000 nM; read-out: Percent Control
T29 construct: purchased Eurofins DiscoverX

kinome (kinase panel) [30] = molecular target: T30, kinome (kinase panel) (Homo sapiens, UniProt Q9HC98); settings: NEK6; 1000 nM; read-out: Percent Control
T30 construct: purchased Eurofins DiscoverX

kinome (kinase panel) [31] = molecular target: T31, kinome (kinase panel) (Homo sapiens, UniProt Q9P286); settings: PAK7; 1000 nM; read-out: Percent Control
T31 construct: purchased Eurofins DiscoverX

kinome (kinase panel) [32] = molecular target: T32, kinome (kinase panel) (Homo sapiens, UniProt Q9Y6M4); settings: CSNK1G3; 1000 nM; read-out: Percent Control
T32 construct: purchased Eurofins DiscoverX

T8 sequence (P11802 whole entry): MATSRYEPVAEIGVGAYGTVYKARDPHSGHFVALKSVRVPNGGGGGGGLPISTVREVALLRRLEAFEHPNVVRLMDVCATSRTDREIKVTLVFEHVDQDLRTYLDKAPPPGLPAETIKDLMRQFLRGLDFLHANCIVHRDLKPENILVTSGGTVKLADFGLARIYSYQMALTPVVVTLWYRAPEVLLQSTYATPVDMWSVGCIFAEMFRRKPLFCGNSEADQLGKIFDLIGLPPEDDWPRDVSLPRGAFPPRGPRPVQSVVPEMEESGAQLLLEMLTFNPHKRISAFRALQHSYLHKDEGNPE
T19 sequence (Q07912 whole entry): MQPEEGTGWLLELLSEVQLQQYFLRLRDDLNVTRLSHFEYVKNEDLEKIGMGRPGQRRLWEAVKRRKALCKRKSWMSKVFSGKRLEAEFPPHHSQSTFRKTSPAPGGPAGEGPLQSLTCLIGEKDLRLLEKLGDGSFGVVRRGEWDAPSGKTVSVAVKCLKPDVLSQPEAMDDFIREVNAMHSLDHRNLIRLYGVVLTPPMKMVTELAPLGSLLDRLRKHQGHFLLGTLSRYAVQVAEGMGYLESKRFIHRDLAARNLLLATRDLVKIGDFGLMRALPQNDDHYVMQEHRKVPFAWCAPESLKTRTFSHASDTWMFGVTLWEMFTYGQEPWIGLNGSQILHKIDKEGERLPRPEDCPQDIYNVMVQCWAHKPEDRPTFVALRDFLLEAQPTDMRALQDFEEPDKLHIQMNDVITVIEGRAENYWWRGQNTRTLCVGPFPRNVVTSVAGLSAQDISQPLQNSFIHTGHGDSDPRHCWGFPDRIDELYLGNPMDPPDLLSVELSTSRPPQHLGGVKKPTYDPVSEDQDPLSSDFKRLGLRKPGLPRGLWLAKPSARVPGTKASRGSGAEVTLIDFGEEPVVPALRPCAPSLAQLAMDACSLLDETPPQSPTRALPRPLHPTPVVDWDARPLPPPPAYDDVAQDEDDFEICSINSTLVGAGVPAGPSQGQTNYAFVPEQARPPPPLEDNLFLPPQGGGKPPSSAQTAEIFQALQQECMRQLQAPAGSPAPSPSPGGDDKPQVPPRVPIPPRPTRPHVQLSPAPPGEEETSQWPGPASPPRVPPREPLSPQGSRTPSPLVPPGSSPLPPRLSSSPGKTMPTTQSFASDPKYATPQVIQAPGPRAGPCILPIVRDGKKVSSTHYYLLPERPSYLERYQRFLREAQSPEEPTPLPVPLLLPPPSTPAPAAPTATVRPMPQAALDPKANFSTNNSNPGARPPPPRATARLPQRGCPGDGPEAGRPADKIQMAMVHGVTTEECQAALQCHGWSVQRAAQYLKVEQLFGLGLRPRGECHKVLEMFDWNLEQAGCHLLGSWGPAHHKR
T6 sequence (P06239 whole entry): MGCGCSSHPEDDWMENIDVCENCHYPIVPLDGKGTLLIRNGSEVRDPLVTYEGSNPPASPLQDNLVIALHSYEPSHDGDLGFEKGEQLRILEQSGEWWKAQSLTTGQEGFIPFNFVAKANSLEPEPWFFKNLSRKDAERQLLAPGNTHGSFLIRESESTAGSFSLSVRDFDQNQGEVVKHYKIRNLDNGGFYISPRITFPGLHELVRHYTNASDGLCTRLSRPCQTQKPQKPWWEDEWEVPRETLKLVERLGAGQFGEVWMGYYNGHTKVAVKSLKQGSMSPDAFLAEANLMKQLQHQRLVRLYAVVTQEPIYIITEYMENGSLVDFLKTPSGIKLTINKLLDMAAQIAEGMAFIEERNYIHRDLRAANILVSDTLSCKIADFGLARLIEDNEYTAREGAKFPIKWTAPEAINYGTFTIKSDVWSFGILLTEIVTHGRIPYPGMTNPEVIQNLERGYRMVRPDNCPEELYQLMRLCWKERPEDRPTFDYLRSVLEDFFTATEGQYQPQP
T1 sequence (O14976 whole entry): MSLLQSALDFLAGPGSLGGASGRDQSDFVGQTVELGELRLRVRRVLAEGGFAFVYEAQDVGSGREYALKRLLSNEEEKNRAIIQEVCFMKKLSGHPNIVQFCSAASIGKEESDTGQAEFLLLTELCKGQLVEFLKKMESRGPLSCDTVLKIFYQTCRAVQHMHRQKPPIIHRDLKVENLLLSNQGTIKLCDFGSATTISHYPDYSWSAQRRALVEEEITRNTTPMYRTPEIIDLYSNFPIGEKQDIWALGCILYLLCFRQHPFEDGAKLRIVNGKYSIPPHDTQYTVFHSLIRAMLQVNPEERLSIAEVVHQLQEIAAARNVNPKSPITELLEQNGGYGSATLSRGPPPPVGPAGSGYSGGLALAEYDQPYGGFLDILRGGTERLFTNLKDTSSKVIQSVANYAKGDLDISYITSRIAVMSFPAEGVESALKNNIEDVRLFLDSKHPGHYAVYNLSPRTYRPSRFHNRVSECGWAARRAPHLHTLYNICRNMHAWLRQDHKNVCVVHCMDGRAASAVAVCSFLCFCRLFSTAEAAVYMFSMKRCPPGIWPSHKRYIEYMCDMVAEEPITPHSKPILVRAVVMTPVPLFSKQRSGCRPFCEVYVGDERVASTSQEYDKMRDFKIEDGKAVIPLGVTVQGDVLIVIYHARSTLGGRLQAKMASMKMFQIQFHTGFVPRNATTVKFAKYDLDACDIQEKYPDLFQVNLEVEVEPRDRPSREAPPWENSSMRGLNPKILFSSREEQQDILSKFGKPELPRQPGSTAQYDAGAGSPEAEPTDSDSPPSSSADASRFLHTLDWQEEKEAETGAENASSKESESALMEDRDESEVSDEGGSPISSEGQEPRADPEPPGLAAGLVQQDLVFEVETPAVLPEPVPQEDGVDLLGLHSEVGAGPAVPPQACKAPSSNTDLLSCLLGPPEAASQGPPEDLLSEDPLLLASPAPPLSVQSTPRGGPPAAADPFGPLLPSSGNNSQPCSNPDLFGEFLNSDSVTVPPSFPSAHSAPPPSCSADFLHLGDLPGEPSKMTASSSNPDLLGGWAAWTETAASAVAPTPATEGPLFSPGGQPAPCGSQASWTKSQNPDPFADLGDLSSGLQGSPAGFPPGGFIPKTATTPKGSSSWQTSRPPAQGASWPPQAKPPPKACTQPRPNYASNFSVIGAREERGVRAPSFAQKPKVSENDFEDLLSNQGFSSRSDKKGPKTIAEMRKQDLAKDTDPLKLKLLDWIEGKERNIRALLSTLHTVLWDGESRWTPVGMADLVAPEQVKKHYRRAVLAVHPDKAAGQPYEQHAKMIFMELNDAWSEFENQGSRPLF
T23 sequence (Q15835 whole entry): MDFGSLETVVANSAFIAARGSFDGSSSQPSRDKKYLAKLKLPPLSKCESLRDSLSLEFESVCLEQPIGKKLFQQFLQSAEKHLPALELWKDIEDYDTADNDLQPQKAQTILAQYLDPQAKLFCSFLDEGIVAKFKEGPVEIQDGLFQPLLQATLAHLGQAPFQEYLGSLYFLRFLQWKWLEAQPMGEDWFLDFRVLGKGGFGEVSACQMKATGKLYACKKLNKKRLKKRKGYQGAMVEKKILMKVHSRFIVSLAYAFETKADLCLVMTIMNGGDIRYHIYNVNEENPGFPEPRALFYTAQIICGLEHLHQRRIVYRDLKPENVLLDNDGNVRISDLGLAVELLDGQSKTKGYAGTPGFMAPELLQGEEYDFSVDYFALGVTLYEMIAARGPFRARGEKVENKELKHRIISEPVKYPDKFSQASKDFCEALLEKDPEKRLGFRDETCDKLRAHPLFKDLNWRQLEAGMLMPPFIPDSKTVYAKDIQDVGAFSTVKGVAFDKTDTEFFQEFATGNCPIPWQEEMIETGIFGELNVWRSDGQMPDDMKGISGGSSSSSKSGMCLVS
T22 sequence (Q15139 whole entry): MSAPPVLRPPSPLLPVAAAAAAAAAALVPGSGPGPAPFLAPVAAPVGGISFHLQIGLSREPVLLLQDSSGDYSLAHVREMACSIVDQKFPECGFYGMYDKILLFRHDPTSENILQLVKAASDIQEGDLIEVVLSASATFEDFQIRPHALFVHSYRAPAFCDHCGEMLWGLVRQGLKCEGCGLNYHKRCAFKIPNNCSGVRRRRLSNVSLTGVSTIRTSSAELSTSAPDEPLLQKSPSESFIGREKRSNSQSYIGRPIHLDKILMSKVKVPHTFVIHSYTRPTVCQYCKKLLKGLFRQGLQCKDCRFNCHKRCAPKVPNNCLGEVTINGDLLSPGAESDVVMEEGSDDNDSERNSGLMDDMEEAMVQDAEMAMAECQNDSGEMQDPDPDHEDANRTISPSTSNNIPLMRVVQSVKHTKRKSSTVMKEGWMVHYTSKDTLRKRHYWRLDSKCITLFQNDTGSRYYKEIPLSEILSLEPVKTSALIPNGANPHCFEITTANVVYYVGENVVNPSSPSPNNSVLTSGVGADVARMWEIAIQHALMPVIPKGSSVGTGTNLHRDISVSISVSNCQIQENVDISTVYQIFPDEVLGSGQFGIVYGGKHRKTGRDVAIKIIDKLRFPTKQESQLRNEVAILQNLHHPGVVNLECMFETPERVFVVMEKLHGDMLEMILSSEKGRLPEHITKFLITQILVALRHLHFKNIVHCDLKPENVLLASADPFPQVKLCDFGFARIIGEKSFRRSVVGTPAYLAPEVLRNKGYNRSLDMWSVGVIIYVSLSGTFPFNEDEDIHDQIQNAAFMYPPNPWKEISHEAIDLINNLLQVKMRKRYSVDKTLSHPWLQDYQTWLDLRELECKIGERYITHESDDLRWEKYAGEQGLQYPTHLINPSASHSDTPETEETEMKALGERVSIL
T12 sequence (P46734 whole entry): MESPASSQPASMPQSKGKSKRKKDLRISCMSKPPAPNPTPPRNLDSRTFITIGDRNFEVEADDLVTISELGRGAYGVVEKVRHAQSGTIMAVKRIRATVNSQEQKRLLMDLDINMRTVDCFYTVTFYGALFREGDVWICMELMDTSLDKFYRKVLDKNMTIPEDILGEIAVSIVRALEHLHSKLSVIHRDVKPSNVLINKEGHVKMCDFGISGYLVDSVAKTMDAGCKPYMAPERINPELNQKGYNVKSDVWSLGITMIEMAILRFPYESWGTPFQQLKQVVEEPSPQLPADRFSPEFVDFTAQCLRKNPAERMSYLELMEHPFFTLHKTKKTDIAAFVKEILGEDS

CN(C)C(=O)c1cc2cnc(Nc3ccc(-c4csc5c(=O)cc(N6CCOCC6)oc45)cc3)nc2n1C1CCCC1 [SRX3177] showed a remaining binding at 1 µM (kinome (kinase panel) [1]) of 56%, a remaining binding at 1 µM (kinome (kinase panel) [2]) of 51% and a remaining binding at 1 µM (kinome (kinase panel) [3]) of 65%. For the same compound, the remaining binding at 1 µM (kinome (kinase panel) [4]) was 91%, the remaining binding at 1 µM (kinome (kinase panel) [5]) was 100% and the remaining binding at 1 µM (kinome (kinase panel) [6]) was 79%. The remaining binding at 1 µM (kinome (kinase panel) [7]) was 100%, the remaining binding at 1 µM (kinome (kinase panel) [8]; CDK4-cyclinD1) was 0.9% and the remaining binding at 1 µM (kinome (kinase panel) [8]; CDK4-cyclinD3) was 1.1%. For the same compound, the remaining binding at 1 µM (kinome (kinase panel) [8]; CDK4) was 18%, the remaining binding at 1 µM (kinome (kinase panel) [9]) was 76% and the remaining binding at 1 µM (kinome (kinase panel) [10]) was 1.8%. The remaining binding at 1 µM (kinome (kinase panel) [11]) was 72%, the remaining binding at 1 µM (kinome (kinase panel) [12]) was 76% and the remaining binding at 1 µM (kinome (kinase panel) [13]) was 90%. It also gave a remaining binding at 1 µM (kinome (kinase panel) [14]) of 79%, a remaining binding at 1 µM (kinome (kinase panel) [15]) of 92% and a remaining binding at 1 µM (kinome (kinase panel) [16]) of 100%. For the same compound, the remaining binding at 1 µM (kinome (kinase panel) [17]) was 100%, the remaining binding at 1 µM (kinome (kinase panel) [18]) was 77% and the remaining binding at 1 µM (kinome (kinase panel) [19]) was 90%. For the same compound, the remaining binding at 1 µM (kinome (kinase panel) [20]) was 60%, the remaining binding at 1 µM (kinome (kinase panel) [21]) was 51% and the remaining binding at 1 µM (kinome (kinase panel) [22]) was 100%. The remaining binding at 1 µM (kinome (kinase panel) [23]) was 79%, the remaining binding at 1 µM (kinome (kinase panel) [24]) was 55% and the remaining binding at 1 µM (kinome (kinase panel) [25]) was 91%. For the same compound, the remaining binding at 1 µM (kinome (kinase panel) [26]) was 90%, the remaining binding at 1 µM (kinome (kinase panel) [27]) was 100% and the remaining binding at 1 µM (kinome (kinase panel) [28]) was 36%. It also gave a remaining binding at 1 µM (kinome (kinase panel) [29]) of 79%, a remaining binding at 1 µM (kinome (kinase panel) [30]) of 100% and a remaining binding at 1 µM (kinome (kinase panel) [31]) of 89%. It also gave a remaining binding at 1 µM (kinome (kinase panel) [32]) of 100%.
